Among the data in ChEMBL document CHEMBL3739354, “Nitrofuranyl Methyl Piperazines as New Anti-TB Agents: Identification, Validation, Medicinal Chemistry, and PK Studies” (ACS Med Chem Lett, 2015) are MIC90 values, retold here.

Converted amounts (≈) assume the structure as drawn.

Test [1] concerns Mycobacterium tuberculosis. Description: microbe, parasite or virus in culture. The note with it: 168 h.
For test [2], the system named is Mycobacterium tuberculosis. The experiment in a line: microbe, parasite or virus in culture. To be noted: 168 h. This is another data set of the same source.

Consider `CC(C)(C)c1ccc(N2CCN(Cc3ccc([N+](=O)[O-])o3)CC2)cc1`, for which the results for the MIC90 in test [1] and in test [2] were greater than 25.2 µM and 1.32 µM (≈ 0.453 µg/mL), respectively.

As for `Cc1cccc(N2CCN(Cc3ccc([N+](=O)[O-])o3)CC2)c1C`, in test [2], the MIC90 worked out at 25.3 µM (≈ 7.98 µg/mL).

In the case of `O=[N+]([O-])c1ccc(CN2CCN(S(=O)(=O)c3ccccc3)CC2)o1`, the figures for the MIC90 in test [1] and in test [2] were greater than 22.7 µM and 2.13 µM (≈ 0.748 µg/mL), respectively.

For the molecule `O=[N+]([O-])c1ccc(CN2CCN(c3ccc(Cl)cc3)CC2)o1`, the MIC90 was determined as 0.029 µM (≈ 0.00933 µg/mL) in test [1] and 0.072 µM (≈ 0.0232 µg/mL) in test [2].

For `COc1c(N2CCNC(C)C2)c(F)cc2c(=O)c(C(=O)O)cn(C3CC3)c12` (stereo not given) [GATIFLOXACIN], the MIC90 in test [1] was 1.33 µM (≈ 0.499 µg/mL); in test [2] it was 2.66 µM (≈ 0.999 µg/mL).

For the molecule `O=[N+]([O-])c1ccc(S(=O)(=O)N2CCN(Cc3ccc([N+](=O)[O-])o3)CC2)cc1`, the figures for the MIC90 in test [1] and in test [2] were 4.19 µM (≈ 1.66 µg/mL) and 0.63 µM (≈ 0.25 µg/mL), respectively.

Consider `CC(C)(C)OC(=O)N1CCN(Cc2ccc([N+](=O)[O-])o2)CC1`, for which the MIC90 came out at 0.12 µM (≈ 0.0374 µg/mL) in test [1] and 0.32 µM (≈ 0.0996 µg/mL) in test [2].

In test [2], `O=[N+]([O-])c1ccc(CN2CCN(c3cccc(C(F)(F)F)c3)CC2)o1` came in with an MIC90 of 5.63 µM (≈ 2 µg/mL).

In test [2], `O=[N+]([O-])c1ccc(CN2CCN(c3ccc(F)cc3)CC2)o1` registered an MIC90 of 6.55 µM (≈ 2 µg/mL).

In the case of `COc1cccc(N2CCN(Cc3ccc([N+](=O)[O-])o3)CC2)c1`, the figures for the MIC90 in test [1] and in test [2] were 0.09 µM (≈ 0.0286 µg/mL) and 0.37 µM (≈ 0.117 µg/mL), respectively.

As to `CO[C@H]1/C=C/O[C@@]2(C)Oc3c(C)c(O)c4c(O)c(c(/C=N/N5CCN(C)CC5)c(O)c4c3C2=O)NC(=O)/C(C)=C\C=C\[C@H](C)[C@H](O)[C@@H](C)[C@@H](O)[C@@H](C)[C@H](OC(C)=O)[C@@H]1C` [RIFAMPIN], the MIC90 turned out to be 156 µM (≈ 128 µg/mL) in test [1] and 311 µM (≈ 256 µg/mL) in test [2].

With `O=[N+]([O-])c1ccc(CN2CCN(S(=O)(=O)c3ccc(F)cc3)CC2)o1`, the results for the MIC90 in test [1] and in test [2] were 1 µM (≈ 0.369 µg/mL) and 1.35 µM (≈ 0.499 µg/mL), respectively.

Take `N#Cc1cccc(N2CCN(Cc3ccc([N+](=O)[O-])o3)CC2)c1`: the MIC90 is 0.06 µM (≈ 0.0187 µg/mL) in test [1] and 0.19 µM (≈ 0.0593 µg/mL) in test [2].

`Cc1ccc(S(=O)(=O)N2CCN(Cc3ccc([N+](=O)[O-])o3)CC2)cc1`: the MIC90 in test [1] was determined as 14.6 µM (≈ 5.33 µg/mL); in test [2], 0.68 µM (≈ 0.248 µg/mL).

With `O=[N+]([O-])c1ccc(CN2CCN(c3ccccc3F)CC2)o1`, in test [2], the MIC90 was 13.1 µM (≈ 4 µg/mL).

`O=[N+]([O-])c1ccc(CN2CCN(c3ccccc3)CC2)o1`: the MIC90 in test [2] amounted to 13.9 µM (≈ 4 µg/mL).

For `O=[N+]([O-])c1ccc(CN2CCN(c3cccc(Cl)c3)CC2)o1`, in test [2], the MIC90 amounted to 0.37 µM (≈ 0.119 µg/mL).

For `O=[N+]([O-])c1ccc(CN2CCN(c3ccc(N4CCOCC4)cc3)CC2)o1`, the MIC90 in test [1] and in test [2] was 0.08 µM (≈ 0.0298 µg/mL) throughout.
